Tests used:
Type in all cases: biochemical
human cathepsin G (HCG) = target: T1, human cathepsin G (HCG) (Homo sapiens, UniProt P08311); experiment: HCG inhibitory activity; details: HCG 50 nM, substrate 0.5 mM, pH 7.5
T1 construct: purchased Cosmo Bio Inc
T1 sequence (P08311 21-255): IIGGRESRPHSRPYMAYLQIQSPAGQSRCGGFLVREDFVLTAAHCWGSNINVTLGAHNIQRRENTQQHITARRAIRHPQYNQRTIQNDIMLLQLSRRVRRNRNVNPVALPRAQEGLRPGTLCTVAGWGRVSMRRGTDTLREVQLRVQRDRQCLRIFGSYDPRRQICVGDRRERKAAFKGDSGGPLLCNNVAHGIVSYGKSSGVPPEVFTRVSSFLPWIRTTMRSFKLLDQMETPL
Protocol: (§1) Inhibotory activities of the oxadinone derivative of the present invention against human leukocyte elastase (HLE), human sputum elastase (HSE), human cathepsin G (HCG), bovine pancreatic α-chymotrypsin (CYT) and bovine pancreatic trypsin (TRY) were measured as follows:
(3) Measurement of HCG Inhibitory Activity
a) Enzyme Preparing Method Bought from Cosmo Bio Inc.
(§2) Employed was a measuring method similar to that described previously in conjunction with the measurement of the HLE inhibiting activity, except that used was a buffer solution of pH 7.5. The final concentrations of HCG and the synthetic substrate (Ac-Ala-Ala-Pro-Phe-pNA; FUNAKOSHI) in the solution of the enzyme reaction were 50 nM and 0.5 mM, respectively.

[1] = target: T2, human leukocyte elastase (HLE) (Homo sapiens, UniProt P08246); experiment: HLE inhibitory activity; details: HLE 5.63 nM, substrate 0.2625 mM, pH 8.6, 37° C.
T2 construct: applying a density gradient centrifugal operation so as to obtain neutrophils; from tissue; host or cells: neutrophils from human venous blood
T2 sequence (P08246 30-267): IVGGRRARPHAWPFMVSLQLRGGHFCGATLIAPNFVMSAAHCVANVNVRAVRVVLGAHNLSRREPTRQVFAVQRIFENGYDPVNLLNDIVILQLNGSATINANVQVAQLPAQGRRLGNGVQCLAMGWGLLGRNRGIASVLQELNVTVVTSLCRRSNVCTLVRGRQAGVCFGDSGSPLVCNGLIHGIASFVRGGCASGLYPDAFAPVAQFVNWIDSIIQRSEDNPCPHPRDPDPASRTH
Protocol: as §1
(1) Measurement of HLE Inhibitory Activity
A buffy coat was obtained by subjecting human vein blood to centrifugal separation, followed by adding distilled water to the buffy coat thus obtained for performing a low tension treatment so as to collapse erythrocytes. A mixture consisting of 10 parts of a 33.4% Conrey 400 solution and 24 parts of 9% of Ficoll solution was added to the residual blood cell component, followed by applying a density gradient centrifugal operation so as to obtain neutrophils. The neutrophil fraction was washed three times with Hanks' buffer so as to recover cells, which were frozen at -80° C. for preservation until the cells were used. The cells preserved under a frozen state were thawed with warm water of 37° C. and suspended in the lysis buffer (0.1M Tris-HCl pH 7.5, 1M MgCl2, 0.1% Brij 35), the amount of the buffer being 9 times as much as that of the cells. Then, the suspended cells were collapsed with polotron while cooling the suspension with ice. Then, the suspension was subjected to a centrifugal separation at 100,000×g for one hour so as to remove the precipitate. Also, a buffer (5 mM Tris-HCl pH 7.5, 1M NaCl, 1.1% Brij 35) was added to the supernatant in an amount twice as much as the supernatant so as to prepare a crude solution of an enzyme extract. The crude solution of an enzyme extract was adsorbed on an aprotinin affinity column. Further, the active fraction eluted with a 50 ml glycine-HCl solution (pH 3.3, 1M NaCl, 0.1% Brij 35) was passed through a MONO S ion-exchange chromatography. The active fraction eluted with a 2M NaCl linear gradient was dialyzed and, then, subjected to a freeze-drying so as to prepare an enzyme sample.
A test compound to be detected was dissolved in DMSO (for fluorometry) so as to prepare solutions of various concentrations. Then, the solution of 0.2M Tris-HCl (pH 9.6) was added to each of the solutions in an amount twice as much as the solution so as to prepare a test solution. On the other hand, a synthetic substrate (MeOSuc-Ala-Pro-Val-pNA; FUNAKOSHI) was dissolved in DMSO, followed by adding 0.2M tris-HCl solution (pH 8.6) to the solution in an amount twice as much as the solution so as to prepare a substrate solution.
A microplate (NUNK) provided with 96 wells was used for the reaction. The reaction was repeatedly carried out 6 times for each concentration of the test compound. Each of 140 μl of the enzyme solution (0.2M Tris-HCl, pH 8.6), 30 μl of the test material solution and 30 μl of the substrate solution was pre-incubated for 10 minutes at 37° C. for each well of the microplate. After incubation of a mixture of the enzyme solution and the test material solution for 10 minutes, the substrate solution was added so as to carry out the enzyme reaction. For determining the substrate decomposition, the absorbance (405 run) of the released pNA was measured by a microplate reader (MTP-100; CORONA), and the substrate decomposition was calculated on the basis of the average value of the absorbances repeatedly measured 6 times. The inhibitory concentration of the test compound relative to the decomposition amount of the substrate in the case where the test compound was not added was obtained as IC50 value.

[2] = target: T3, bovine pancreatic α-chymotrypsin (CYT) (Bos taurus, UniProt P00766); experiment: CYT inhibitory activity; details: CYT 3.4 nM, substrate 0.273 mM, pH 8.0
T3 construct: purchased Sigma Inc; host or cells: bovine pancreas (by its name)
Protocol: as §1
(4) Measurement of CYT Inhibitory Activity
a) Enzyme Preparing Method Bought from Sigma Inc.
as §2, with “8.0.” for “7.5.”, “CYT” for “HCG”, “3.4” for “50”, “0.273” for “0.5”

Compound | IC50 (human cathepsin G (HCG)) [µM] | IC50 [1] [µM] | IC50 [2] [µM]
CC(=O)N(CCC(=O)N[C@H](c1nc2cccc(C)c2c(=O)o1)C(C)C)C1c2ccccc2-c2ccccc21 [Compound 5, 2-[1(S)-[[N-acetyl-N-(9-fluorenyl)-β-alanyl]amino]-2-methylpropyl]-5-methyl-4H-3,1-benzoxazin-4-one] | > 12.3 | 0.24 | 1.96
Cc1cccc2nc([C@@H](NC(=O)CNC(=O)C3c4ccccc4-c4ccccc43)C(C)C)oc(=O)c12 [Compound 4, 2-[1(S)-[[N-(9-fluorenylcarbonyl)glycyl]amino]-2-methylpropyl]-5-methyl-4H-3,1-benzoxazin-4-one] | 11.3 | 0.75 | 6.58
Cc1cccc2nc([C@@H](NC(=O)C=C3c4ccccc4-c4ccccc43)C(C)C)oc(=O)c12 [Compound 6, 2-{1(S)-[(fluorene-Δ^9, ^α -acetyl)amino]-2-methylpropyl}-5-methyl-4H-3,1-benzoxazin-4-one] |  | 0.64 | 
Cc1cccc2nc([C@@H](NC(=O)COC3c4ccccc4-c4ccccc43)C(C)C)oc(=O)c12 [Compound 3, 2-{1(S)-[(9-fluorenyloxyacetyl)amino]-2-methylpropyl}-5-methyl-4H-3,1-benzoxazin-4-one] | > 27.5 | 0.51 | 3.43

Second part, the compound after the results:

IC50 (human cathepsin G (HCG)) [µM] | IC50 [1] [µM] | IC50 [2] [µM] | Compound
 | 1 |  | Cc1cccc2nc(C(C)(C)NC(=O)COC3c4ccccc4-c4ccccc43)oc(=O)c12 [Compound 8, 2-{1-[(9-fluorenyloxyacetyl)amino]-1-methylethyl}-5-methyl-4H-3,1-benzoxazin-4-one]
> 7.59 | 1.28 | > 7.59 | Cc1cccc2nc(CNC(=O)COC3c4ccccc4-c4ccccc43)oc(=O)c12 [Compound 7, 2-[(9-fluorenyloxyacetyl)aminomethyl]-5-methyl-4H-3,1-benzoxazin-4-one]
